Source: article PMC9646673, “A Novel, Orally Bioavailable, Small-Molecule Inhibitor of PCSK9 With Significant Cholesterol-Lowering Properties In Vivo” (Journal of Lipid Research, 2022)
Values joined by “and” are separate entries in the source; they are usually repeats but may differ in a detail not shown here. Equal entries are not always repeated. Where two headings read alike, the source gives them in different places.

Columns and labels:
PCSK9-D374Y = target: T1, PCSK9-D374Y (Homo sapiens, UniProt Q8NBP7, D374Y); test: ex vivo lymphocyte LDLR surface expression assay with recombinant PCSK9-D374Y; assay type: cell-based; conditions: 4 μM, relative to PCSK9 D374Y and vehicle
T1 construct: purchased CycLex (Nagano, Japan); host or cells: added to primary human lymphocytes (PBMCs from a human donor)
T1 sequence (Q8NBP7 153-692 D374Y): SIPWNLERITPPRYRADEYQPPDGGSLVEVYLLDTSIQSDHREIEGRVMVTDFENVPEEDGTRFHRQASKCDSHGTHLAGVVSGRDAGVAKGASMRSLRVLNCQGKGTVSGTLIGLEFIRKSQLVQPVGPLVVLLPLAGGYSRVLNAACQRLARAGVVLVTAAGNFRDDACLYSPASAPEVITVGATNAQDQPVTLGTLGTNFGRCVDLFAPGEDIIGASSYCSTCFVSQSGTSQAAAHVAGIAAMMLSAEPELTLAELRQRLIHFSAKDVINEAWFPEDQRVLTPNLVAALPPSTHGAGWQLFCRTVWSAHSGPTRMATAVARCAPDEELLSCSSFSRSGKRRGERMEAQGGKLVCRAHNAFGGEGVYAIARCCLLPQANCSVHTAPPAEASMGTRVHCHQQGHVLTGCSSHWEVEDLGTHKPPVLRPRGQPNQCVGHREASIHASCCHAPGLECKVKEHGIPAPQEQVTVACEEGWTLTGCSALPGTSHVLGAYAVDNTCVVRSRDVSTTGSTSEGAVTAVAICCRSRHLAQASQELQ
T1 sequence (Q8NBP7 31-152 partner limits assumed): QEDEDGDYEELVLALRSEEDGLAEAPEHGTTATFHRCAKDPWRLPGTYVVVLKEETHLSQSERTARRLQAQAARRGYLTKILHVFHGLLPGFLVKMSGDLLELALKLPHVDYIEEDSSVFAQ
Text: Ethics was granted by the Comité de Protection des Personnes Sud Méditerranée (ID: 2020-A00196-33). Studies using human samples abided by the Declaration of Helsinki principles.

[1] = Pharmacokinetic study, single dose PO/SC/IV; assay type: in vivo, female C57BL/6 mice; conditions: female, C57BL/6, mouse, plasma; for AUC(0-inf): read-out: AUC Infinity; for MRT inf: read-out: MRT Infinity
Description: Pharmacokinetic study protocols were reviewed and approved by the Institutional Animal Care and Use Committee of ChemPartner (Shanghai, China) under ethics A998HL0119. Female C57BL/6 mice aged 10–14 weeks (18–21 g) were purchased from Jihui Laboratory Animal Co. Ltd. (Shanghai, China) and were given ad libitum access to water and food throughout the in-life phase of the studies. […] At designated timepoints (t = 0.083, 0.25, 0.5, 1, 2, 4, 8, and 24 h), the animals were manually restrained, and 110 μl of blood per timepoint was collected into precooled EDTA-K2 tubes via the facial vein. […] Bioavailability was determined by comparing the plasma exposure levels (AUClast) of NYX-PCSK9i when given orally with plasma exposure levels obtained via the IV route.

APOE∗3-Leiden.CETP mice [2] = test: First efficacy study (28 days): plasma lipids; assay type: in vivo, mouse
Text: (§1) Animal experiments were approved by the governmental central committee on animal experiments (AVD5010020172064) and TNO’s animal welfare body (TNO-471 and TNO-482). Female APOE∗3-Leiden.CETP transgenic mice (11–16 weeks of age) were bred at the animal facility of TNO-InnoSer (Leiden, The Netherlands). Female animals were used in this study as they are more responsive to dietary cholesterol and fat than males and therefore typically develop atherosclerosis more rapidly than male APOE∗3-Leiden and APOE∗3-Leiden.CETP mice on cholesterol-containing diets ([33], [34]). Although measurements of atherosclerosis were not included as part of the present study, females were used with the prospect in mind that atherosclerosis studies will follow. The mice were housed under standard conditions that included 12 h light-dark cycles and access to a WTD and sterilized tap water ad libitum. Body weight, food intake, and clinical signs of behavior were monitored throughout the studies. […] Time t = 0 (weeks) was designated as the time at which mice were matched into groups after the 3-week run-in period in each efficacy study.
Treatment times were around 8:00 am and 4:00 pm each day. Throughout the in-life phase of the study, body weight and food intake (per cage) were measured at regular predetermined intervals while blood samples were collected every 7 days. The last gavage was administered on day 27. On day 28, the mice were sacrificed by CO2 asphyxiation, EDTA-plasma was obtained via heart puncture, and the liver was weighed and collected. Throughout the study, plasma cholesterol, triglycerides, HDL-C, lipoprotein profiles, PCSK9 expression levels, aspartate transaminase levels (AST), and alanine transaminase levels (ALT) were measured as described below.
(§2) In both studies, blood samples were collected at weekly intervals via tail vein sampling after fasting the mice for 4 h. Blood samples were centrifugated (4500 g at 4°C), and the plasma was collected for the following analyses. Total plasma cholesterol levels were determined using a Cholesterol CHOD-PAP kit according to the manufacturer’s instructions. Plasma HDL-C levels were determined by first precipitating apoB-containing lipids using PEG 6000/glycine and then utilizing the Cholesterol CHOD-PAP kit ([35]). Non-HDL-C levels were determined by subtracting HDL-C levels from total cholesterol levels ([32]). Group-pooled lipoprotein profiles were determined by FPLC analysis using an AKTApurifier 10 FPLC system (GE Healthcare, Chicago, IL). Plasma PCSK9 levels were determined using a Mouse PCSK9 Quantikine ELISA kit as per the manufacturer’s protocol. ALT and AST levels of group-pooled samples were measured using the Roche Reflotron Plus System (Mannheim, Germany).

APOE∗3-Leiden.CETP mice [3] = test: Second efficacy study (35 days, with atorvastatin): plasma lipids; assay type: in vivo, mouse
Text: as §1, §2

hepatic LDLR protein = test: Second efficacy study: hepatic LDLR protein (Western blotting); assay type: in vivo, mouse; conditions: day 35; NYX-PCSK9i 50 mg/kg BID PO, atorvastatin […]
[4] = 30 mg/kg BID PO, day 0 (baseline)
[5] = 50 mg/kg BID PO, day 0 (baseline)
[6] = 30 and 50 mg/kg BID PO, 28 days
[7] = day 0 (baseline), NYX-PCSK9i 50 mg/kg BID PO
[8] = day 14, NYX-PCSK9i 50 mg/kg BID PO
[9] = day 28, NYX-PCSK9i 50 mg/kg BID PO
[10] = day 35, NYX-PCSK9i 50 mg/kg BID PO

AUC(0-t) ([1]; iv, 5 mg/kg, 5 mg/kg IV): 2010 ng·h/mL
AUC(0-t) ([1]; po, 50 mg/kg, 50 mg/kg PO): ~8100 ng·h/mL
AUC(0-t) ([1]; sc, 50 mg/kg, 50 mg/kg SC): 25500 ng·h/mL
clearance ([1]; 5 mg/kg IV): 38.2 mL/min/kg
half-life ([1]; 5 mg/kg IV): 7.48 h
AUC(0-inf) ([1]; 5 mg/kg IV): 2190 ng·h/mL
MRT inf ([1]; 5 mg/kg IV): 6.42 h
Vd ([1]; 5 mg/kg IV, read-out: Vss): 14.7 L/kg
half-life ([1]; 50 mg/kg PO): 6.29 h
AUC(0-inf) ([1]; 50 mg/kg PO): 8700 ng·h/mL
MRT inf ([1]; 50 mg/kg PO): 7.07 h
half-life ([1]; 50 mg/kg SC): 9.11 h
AUC(0-inf) ([1]; 50 mg/kg SC): 30400 ng·h/mL
MRT inf ([1]; 50 mg/kg SC): 12.2 h
bioavailability ([1]; AUClast 50 mg/kg PO vs 5 mg/kg IV): 40%
SMILES: Cc1cn(-c2cc(CN3CCC[C@H](N)C3)cc(NC(=O)c3cc(-c4ccccc4)ccn3)c2)cn1 [NYX-PCSK9i]
LDLR expression levels on surface of human lymphocytes (PCSK9-D374Y): large and significant increase in LDLR expression levels
Plasma HDL- cholesterol (mean ± SEM) (APOE∗3-Leiden.CETP mice [2]; [4]): 0.9 ± 0.2 mmol/L
Plasma non-HDL- cholesterol (mean ± SEM) (APOE∗3-Leiden.CETP mice [2]; [4]): 14.7 ± 1.6 mmol/L
Plasma triglycerides (mean ± SD) (APOE∗3-Leiden.CETP mice [2]; [4]): 5.7 ± 2.2 mmol/L
Plasma triglycerides (mean ± SD) (APOE∗3-Leiden.CETP mice [2]; 30 mg/kg BID PO, day 7): 7.0 ± 2.0 mmol/L
Plasma HDL- cholesterol (mean ± SEM) (APOE∗3-Leiden.CETP mice [2]; 30 mg/kg BID PO, day 14): 0.4 ± 0.1 mmol/L
Plasma non-HDL- cholesterol (mean ± SEM) (APOE∗3-Leiden.CETP mice [2]; 30 mg/kg BID PO, day 14): 13.1 ± 2.2 mmol/L
Plasma triglycerides (mean ± SD) (APOE∗3-Leiden.CETP mice [2]; 30 mg/kg BID PO, day 14): 8.9 ± 1.8 mmol/L
Plasma triglycerides (mean ± SD) (APOE∗3-Leiden.CETP mice [2]; 30 mg/kg BID PO, day 21): 6.1 ± 1.5 mmol/L
Plasma HDL- cholesterol (mean ± SEM) (APOE∗3-Leiden.CETP mice [2]; 30 mg/kg BID PO, day 28): 0.8 ± 0.2 mmol/L
Plasma non-HDL- cholesterol (mean ± SEM) (APOE∗3-Leiden.CETP mice [2]; 30 mg/kg BID PO, day 28): 10.5 ± 1.4 mmol/L
Plasma triglycerides (mean ± SD) (APOE∗3-Leiden.CETP mice [2]; 30 mg/kg BID PO, day 28): 5.7 ± 1.9 mmol/L
Plasma HDL- cholesterol (mean ± SEM) (APOE∗3-Leiden.CETP mice [2]; [5]): 0.8 ± 0.1 mmol/L
Plasma non-HDL- cholesterol (mean ± SEM) (APOE∗3-Leiden.CETP mice [2]; [5]): 14.6 ± 2.5 mmol/L
Plasma triglycerides (mean ± SD) (APOE∗3-Leiden.CETP mice [2]; [5]): 6.1 ± 1.9 mmol/L
Plasma triglycerides (mean ± SD) (APOE∗3-Leiden.CETP mice [2]; 50 mg/kg BID PO, day 7): 5.9 ± 2.0 mmol/L
Plasma HDL- cholesterol (mean ± SEM) (APOE∗3-Leiden.CETP mice [2]; 50 mg/kg BID PO, day 14): 0.6 ± 0.2 mmol/L
Plasma non-HDL- cholesterol (mean ± SEM) (APOE∗3-Leiden.CETP mice [2]; 50 mg/kg BID PO, day 14): 9.8 ± 2.4 mmol/L
Plasma triglycerides (mean ± SD) (APOE∗3-Leiden.CETP mice [2]; 50 mg/kg BID PO, day 14): 5.2 ± 1.7 mmol/L
Plasma triglycerides (mean ± SD) (APOE∗3-Leiden.CETP mice [2]; 50 mg/kg BID PO, day 21): 4.2 ± 1.3 mmol/L
Plasma HDL- cholesterol (mean ± SEM) (APOE∗3-Leiden.CETP mice [2]; 50 mg/kg BID PO, day 28): 0.9 ± 0.2 mmol/L
Plasma non-HDL- cholesterol (mean ± SEM) (APOE∗3-Leiden.CETP mice [2]; 50 mg/kg BID PO, day 28): 6.8 ± 1.5 mmol/L
Plasma triglycerides (mean ± SD) (APOE∗3-Leiden.CETP mice [2]; 50 mg/kg BID PO, day 28): 4.1 ± 1.2 mmol/L
reduction of total cholesterol in absolute terms (APOE∗3-Leiden.CETP mice [2]; 50 mg/kg BID PO, day 28): 10.1 mM and 390 mg/dl
HDL-C levels (APOE∗3-Leiden.CETP mice [2]; [6]): no consistent reduction in HDL-C levels
Mean plasma triglyceride levels (APOE∗3-Leiden.CETP mice [2]; [6]): essentially unchanged
Plasma HDL-cholesterol (APOE∗3-Leiden.CETP mice [3]; [7]): 0.9 ± 0.1 mmol/L
Plasma non- HDL-cholesterol (APOE∗3-Leiden.CETP mice [3]; [7]): 14.6 ± 2.5 mmol/L
Plasma triglycerides (mean ± SD) (APOE∗3-Leiden.CETP mice [3]; [7]): 5.3 ± 1.4 mmol/L
Plasma triglycerides (mean ± SD) (APOE∗3-Leiden.CETP mice [3]; day 7, NYX-PCSK9i 50 mg/kg BID PO): 8.9 ± 3.3 mmol/L
Plasma HDL-cholesterol (APOE∗3-Leiden.CETP mice [3]; [8]): 0.7 ± 0.4 mmol/L
Plasma non- HDL-cholesterol (APOE∗3-Leiden.CETP mice [3]; [8]): 12.7 ± 0.6 mmol/L
Plasma triglycerides (mean ± SD) (APOE∗3-Leiden.CETP mice [3]; [8]): 8.6 ± 2.7 mmol/L
Plasma triglycerides (mean ± SD) (APOE∗3-Leiden.CETP mice [3]; day 21, NYX-PCSK9i 50 mg/kg BID PO): 7.1 ± 1.6 mmol/L
Plasma HDL-cholesterol (APOE∗3-Leiden.CETP mice [3]; [9]): 0.8 ± 0.2 mmol/L
Plasma non- HDL-cholesterol (APOE∗3-Leiden.CETP mice [3]; [9]): 11.8 ± 2.8 mmol/L
Plasma triglycerides (mean ± SD) (APOE∗3-Leiden.CETP mice [3]; [9]): 6.0 ± 1.7 mmol/L
Plasma HDL-cholesterol (APOE∗3-Leiden.CETP mice [3]; [10]): 0.7 ± 0.4 mmol/L
Plasma non- HDL-cholesterol (APOE∗3-Leiden.CETP mice [3]; [10]): 12.8 ± 2.8 mmol/L
Plasma triglycerides (mean ± SD) (APOE∗3-Leiden.CETP mice [3]; [10]): 5.8 ± 1.7 mmol/L
increase in hepatic LDLR protein expression (hepatic LDLR protein): 45%
